As usually defined, the inhibition is the relative decrease from the control value, in per cent.

The subject of the assay is HCV. Description: anti-HCV activity assay in cell culture (HCV RNA by one-step quantitative RT-PCR). The assay is classed as cell-based. To be noted: compound at 10 μmol/L, Huh7.5 cells infected with HCV virus particles, cultured 96 hrs, HCV RNA in cells vs virus control group; for inhibition at 10 µM: Hepatitis C virus, Huh7.5, 96 h, read-out: percent inhibition (%). How it is done: The assay results of anti-HCV activity of the compound synthesized according to the present invention in cell culture are shown in Table 1, wherein the molecular weight is calculated by ChemBioDraw 12.0 software from the molecular structure of each compound.
100 μL Huh7.5 cells were seeded in 96-well cell culture plate to 1×10^5/mL density, cultured in an incubator at 37° C. under the condition of 5% CO2 and saturated humidity for 6 hrs. Huh7.5 cells were then infected by viral solution containing HCV virus particles, and solutions of compound of the present invention at a concentration of 10 μmol/L liquid were added respectively, cultured for further 96 hrs, and then total RNA was extracted from the cells. Amount of HCV RNA in cells was determined by one-step quantitative RT-PCR, and compared to RNA levels of the virus control group to calculate the inhibition rate of compounds on HCV.

Turning to `Cc1ccc(NCc2cc(N3CCNCC3)ccc2C#N)cc1` [Compound 1, 4-(piperazin-1-yl)-2-((p-methylphenylamino)methyl)benzonitrile], the inhibition at 10 µM was found to be 97%.
Turning to `COc1ccc(NCc2cc(N3CCNCC3)ccc2C#N)cc1` [Compound 2, 4-(piperazin-1-yl)-2-(p-methoxyphenylamino)methylbenzonitrile], the inhibition at 10 µM was 89%.
Consider `Cc1ccc(NCc2cc(N3CCN(C)CC3)ccc2C#N)cc1` [Compound 3, 4-(4-methylpiperazin-1-yl)-2-(p-methylphenylamino)methylbenzonitrile], for which the inhibition at 10 µM is 92%.
For `CN1CCN(c2ccc(C#N)c(CNc3ccccc3)c2)CC1` [Compound 4, 4-(4-methylpiperazin-1-yl)-2-(phenylamino)methylbenzonitrile], the inhibition at 10 µM stood at 82%.
Same read-out and setting: in the case of `Cc1ccc(NCc2cc(N3CCNC(C)C3)ccc2C#N)cc1` (stereo not shown) [Compound 5, 4-(3-methylpiperazin-1-yl)-2-(p-methylphenylamino)methylbenzonitrile] it was 88%; in that of `Cc1ccc(NCc2cc(N3CCCC(N)C3)ccc2C#N)cc1` (stereo not shown) [Compound 6, 4-(3-aminopiperidin-1-yl)-2-(p-methylphenylamino)methylbenzonitrile], 68%; in that of `N#Cc1ccc(N2CCNCC2)cc1CNc1ccccc1` [Compound 7, 4-(piperazin-1-yl)-2-(phenylamino)methylbenzonitrile], 82%.
For the compound `CN1CCN(c2ccc(C#N)c(CNc3ccc(Cl)cc3)c2)CC1` [Compound 8, 4-(4-methylpiperazin-1-yl)-2-(p-chlorophenylamino)methylbenzonitrile], the inhibition at 10 µM is 91%.
On to `N#Cc1ccc(N2CCNCC2)cc1CNc1ccc(Cl)cc1` [Compound 9, 4-(piperazin-1-yl)-2-(p-chlorophenylamino)methylbenzonitrile], for which the inhibition at 10 µM turned out to be 92%.
The same measure, in the same setting: then `COc1ccc(NCc2cc(N3CCN(C)CC3)ccc2C#N)cc1` [Compound 10, 4-(4-methylpiperazin-1-yl)-2-(p-methoxyphenylamino)methylbenzonitrile], with 90%; and `CN1CCN(c2ccc(C#N)c(CNc3ccc(C4CCCCC4)cc3)c2)CC1` [Compound 11, 4-(4-methylpiperazin-1-yl)-2-(p-cyclohexylphenylamino)methylbenzonitrile], with 97%; and `CN1CCN(c2ccc(C#N)c(CNc3ccc(C(C)(C)C)cc3)c2)CC1` [Compound 12, 4-(4-methylpiperazin-1-yl)-2-(p-tert-butylphenylamino)methylbenzonitrile], with 92%.
In the case of `CCc1ccc(NCc2cc(N3CCN(C)CC3)ccc2C#N)cc1` [Compound 13, 4-(4-methylpiperazin-1-yl)-2-(p-ethylphenylamino)methylbenzonitrile], the inhibition at 10 µM amounted to 87%.
Same read-out and setting: then `Cc1ccc(N(C)Cc2cc(N3CCN(C)CC3)ccc2C#N)cc1` [Compound 14, 4-(4-methylpiperazin-1-yl)-2-((p-methylphenyl)(methyl)amino)methylbenzonitrile], with 97%.
As to `CCCN(Cc1cc(N2CCN(C)CC2)ccc1C#N)c1ccc(Cl)cc1` [Compound 15, 4-(4-methylpiperazin-1-yl)-2-((p-chlorophenyl)(propyl)amino)methylbenzonitrile], the inhibition at 10 µM came out at 88%.
With `COc1ccc(N(C)Cc2cc(N3CCN(C)CC3)ccc2C#N)cc1` [Compound 16, 4-(4-methylpiperazin-1-yl)-2-((p-methoxyphenyl)(methyl)amino)methylbenzonitrile], the inhibition at 10 µM stood at 84%.
For `CCCN(Cc1cc(N2CCN(C)CC2)ccc1C#N)c1ccc(C(C)(C)C)cc1` [Compound 17, 4-(4-methylpiperazin-1-yl)-2-((p-tert-butylphenyl)(propyl)amino)methylbenzonitrile], the inhibition at 10 µM stood at 96%.
In the case of `CCCN1CCN(c2ccc(C#N)c(CNc3ccccc3)c2)CC1` [Compound 18, 4-(4-propylpiperazin-1-yl)-2-(phenylamino)methylbenzonitrile], the inhibition at 10 µM worked out at 75%.
Take `C=CCN1CCN(c2ccc(C#N)c(CN(C)c3ccc(C(C)(C)C)cc3)c2)CC1` [Compound 19, 4-(4-allylpiperazin-1-yl)-2-((p-tert-butylphenyl)(methyl)amino)methylbenzonitrile]: the inhibition at 10 µM came out at 86%.
Turning to `COc1ccc(N(C)Cc2cc(N3CCN(c4ccccc4)CC3)ccc2C#N)cc1` [Compound 20, 4-(4-phenylpiperazin-1-yl)-2-((p-methoxyphenyl)(methyl)amino)methylbenzonitrile], the inhibition at 10 µM worked out at 70%.
Same read-out and setting: then `CC(C)c1ccc(NCc2cc(N3CCN(C)CC3)ccc2C#N)cc1` [Compound 21, 4-(4-methylpiperazin-1-yl)-2-(p-isopropylphenylamino)methylbenzonitrile], with 90%; and `CCCN1CCN(c2ccc(C#N)c(CN(C)c3ccc(Oc4ccccc4)cc3)c2)CC1` [Compound 22, 4-(4-propylpiperazin-1-yl)-2-((p-phenoxyphenyl)(methyl)amino)methylbenzonitrile], with 86%; and `CCCN1CCN(c2ccc(C#N)c(CNc3ccc(Sc4ccccc4)cc3)c2)CC1` [Compound 23, 4-(4-propylpiperazin-1-yl)-2-(p-(phenylthio)phenylamino)methylbenzonitrile], with 78%.
With `CN1CCN(c2ccc(C#N)c(CNc3ccc(C4CCCC4)cc3)c2)CC1` [Compound 24, 4-(4-methylpiperazin-1-yl)-2-(p-cyclopentylphenylamino)methylbenzonitrile], the inhibition at 10 µM came out at 94%.
`COc1ccc(N(C)Cc2cc(N3CC(C)NC(C)C3)ccc2C#N)cc1` (stereo not shown) [Compound 25, 4-(3,5-dimethylpiperazin-1-yl)-2-((p-methoxyphenyl)(methyl)amino)methylbenzonitrile]: the inhibition at 10 µM is 75%.
In the case of `Cc1ccc(NCc2cc(NCCCN(C)C)ccc2C#N)cc1` [Compound 26, 4-(N,N-dimethyl-1,3-propanediamin-1-yl)-2-(p-methylphenylamino)methylbenzonitrile], the “percent inhibition (%)” value was 79%.
For `CN(C)CCCNc1ccc(C#N)c(CNc2ccccc2)c1` [Compound 27, 4-(N,N-dimethyl-1,3-propanediamin-1-yl)-2-(phenylamino)methylbenzonitrile], the “percent inhibition (%)” value amounted to 78%.
As to `Cc1ccc(NCc2cc(NCCN3CCCCC3)ccc2C#N)cc1` [Compound 28, 4-((2-(piperidin-1-yl)ethyl)amino)-2-(p-methylphenylamino)methylbenzonitrile], the inhibition at 10 µM worked out at 65%.
Consider `CN(C)CCCNc1ccc(C#N)c(CNc2ccc(Cl)cc2)c1` [Compound 29, 4-(N,N-dimethyl-1,3-propanediamin-1-yl)-2-(p-chlorophenylamino)methylbenzonitrile], for which the “percent inhibition (%)” value is listed as 80%.
Turning to `COc1ccc(NCc2cc(NCCN(C)C)ccc2C#N)cc1` [Compound 30, 4-(N,N-dimethyl-1,3-ethylenediamin-1-yl)-2-(p-methoxyphenylamino)methylbenzonitrile], the “percent inhibition (%)” value was 49%.
With `COc1ccc(NCc2cc(NCN3CCCCC3)ccc2C#N)cc1` [Compound 31, 2-((4-methoxyphenyl)amino)methyl-4-(piperidin-1-ylmethyl)aminobenzonitrile], the inhibition at 10 µM was 61%.
With `CN(C)CNc1ccc(C#N)c(CNc2ccc(C(C)(C)C)cc2)c1` [Compound 32, 2-((4-tert-butylphenyl)amino)methyl-4-((N,N-dimethylamino)methyl)aminobenzonitrile], the inhibition at 10 µM was found to be 73%.
Turning to `CN(C)CN(C)c1ccc(C#N)c(CN(C)c2ccc(C(C)(C)C)cc2)c1` [Compound 33, 2-((4-tert-butylphenyl)(methyl)amino)methyl-4-(((dimethylamino)methyl)(methyl)amino)benzonitrile], the inhibition at 10 µM worked out at 89%.
As for `N#Cc1ccc(NCCN2CCCCC2)nc1CNCCCc1ccc(C2CCCC2)cc1` [Compound 34, 2-(((4-cyclopentylphenyl)propylamino)methyl)-6-(2-(piperidin-1-yl)ethyl)amino-3-cyanopyridine], the inhibition at 10 µM stood at 76%.
On to `CN1CCN(c2ccc(C#N)c(CNc3ccc(C4CCCC4)cc3)n2)CC1` [Compound 35, 6-(4-methylpiperazin-1-yl)-2-((4-cyclopentylphenylamino)methyl)-3-cyanopyridine], for which the inhibition at 10 µM worked out at 80%.
As for `COc1ccc(NCc2nc(N3CCN(C)CC3)ccc2C#N)cc1` [Compound 36, 2-((4-methoxyphenyl)amino)methyl-6-(4-methylpiperazin-1-yl)-3-cyanopyridine], the inhibition at 10 µM stood at 75%.
Consider `Cc1ccc(NCc2nc(N3CCN(C)CC3)ccc2C#N)cc1` [Compound 37, 2-((4-methylphenyl)amino)methyl-6-(4-methylpiperazin-1-yl)-3-cyanopyridine], for which the inhibition at 10 µM came out at 72%.
As for `COc1ccc(NCc2nc(N(C)CCN(C)C)ccc2C#N)cc1` [Compound 38, 6-((2-(dimethylamino)ethyl)(methyl)amino)-2-((4-methoxyphenyl)amino)methyl-3-cyanopyridine], the inhibition at 10 µM was determined as 70%.
Regarding `COc1cc(NCc2nc(N(C)CCN(C)C)ccc2C#N)cc(OC)c1` [Compound 39], the “percent inhibition (%)” value was found to be 75%.
`Cc1cccc(NCc2nc(N(C)CCN(C)C)ccc2C#N)c1` [Compound 40, 6-((2-(dimethylamino)ethyl)(methyl)amino)-2-((3-methylphenyl)amino)methyl-3-cyanopyridine]: the inhibition at 10 µM was found to be 84%.

The values above are taken from patent US10252987B2, “Type of antiviral compound” (Institute of Medicinal Biotechnology, Chinese Academy of …, priority 2015, dated 2019).
